The source of these data is US7135468B2, “Antibacterial compounds” (Abbott Laboratories, priority 2004, dated 2006).

The target of the assay is bacterial protein synthesis (S30 Streptococcus pneumoniae extract). As to the kind of experiment: Translation assay, firefly luciferase reporter system with S30 Streptococcus pneumoniae extract. Type of assay: biochemical, Streptococcus pneumoniae ATCC 46919. Conditions: cell-free S30 extract from quinolone-susceptible S. pneumoniae ATCC 46919, luciferase mRNA; read-out: IC50, concentration causing 50% inhibition of bacterial protein synthesis. On the procedure:
Bacterial protein synthesis inhibitory activity of representative compounds of this invention having formula (I) and the commercially-available antibacterials in TABLE 2 was determined by translation assays using the firefly luciferase reporter system described by Murray et al., (2001), “Staphylococcus aureus Cell Extract Transcription-Translation Assay: Firefly Luciferase Reporter System for Evaluating Protein Translation Inhibitors,” Antimicrob. Agents Chemother. 45(6): 1900–1904, but replacing the Staphylococcus aureus S30 extract described therein with S30 Streptococcus pneumoniae extract from quinolone-succeptable Streptococcus pneumoniae ATCC 46919, and replacing plasmid coding for the luciferase gene with mRNA (encoding produced by in an in vitro environment transcription from the plasmid pAS10rbs3) which encoded the luciferase gene with an upstream Streptococcus pneumoniae promoter and Shine-Dalgarno site.

`CC(=O)NC[C@H]1CN(c2ccc(N3CCOCC3)c(F)c2)C(=O)O1` [Linezolid]: the IC50 is about 3000 nM.
